Results reported in patent publication US4146610A, “Antibiotics MM13902” (Beecham Group Limited, priority 1974, dated 1979).
Counter-ions that a name gives are not always drawn.

Assays:
dopa decarboxylase = experiment: Enzyme inhibition (selectivity); assay type: biochemical; details: at concentrations in excess of those required to inhibit the β-lactamase of E. coli
carbonic anhydrase = experiment: Enzyme inhibition (selectivity); assay type: biochemical; details: at concentrations in excess of those required to inhibit the β-lactamase of E. coli
chymotrypsin = experiment: Enzyme inhibition (selectivity); assay type: biochemical; details: at concentrations in excess of those required to inhibit the β-lactamase of E. coli
[1] = test system: β-lactamases produced by Escherichia coli, Klebsiella aerogenes and Staphylococcus aureus; experiment: Inhibition of β-lactamases of various species; assay type: biochemical
urease = experiment: Enzyme inhibition (selectivity); assay type: biochemical; details: at concentrations in excess of those required to inhibit the β-lactamase of E. coli
monoamine oxidase = experiment: Enzyme inhibition (selectivity); assay type: biochemical; details: at concentrations in excess of those required to inhibit the β-lactamase of E. coli
tyrpsin = experiment: Enzyme inhibition (selectivity); assay type: biochemical; details: at concentrations in excess of those required to inhibit the β-lactamase of E. coli
Klebsiella aerogenes = experiment: Antibiotic activity in arbitrary units; assay type: cell-based
Method: The material produced above was arbitrarily assigned an activity of 340 l/ml. Assays were determined as described in Description 3.

Stability = assay type: physicochemical; details: unsalted acid form

CC(=O)N/C=C/[S+]([O-])C1=C(C(=O)O)N2C(=O)C(C(C)OS(=O)(=O)O)C2C1 (stereo not shown) [MM 4550A]
enzyme inhibition (dopa decarboxylase): does not inhibit
enzyme inhibition (carbonic anhydrase): does not inhibit
enzyme inhibition (chymotrypsin): does not inhibit
enzyme inhibitory activity against β-lactamases [1]: possesses enzyme inhibitory activity
enzyme inhibition (urease): does not inhibit
enzyme inhibition (monoamine oxidase): does not inhibit
enzyme inhibition (tyrpsin): does not inhibit

CC(=O)N/C=C/SC1=C(C(=O)O)N2C(=O)C(C(C)OS(=O)(=O)O)C2C1 (stereo not shown) [di-sodium salt of MM 13902]
activity (Klebsiella aerogenes; yellowish powder after cellulose chromatography): 73,000 units/mg

CC(=O)N/C=C/SC1=C(C(=O)O)N2C(=O)C(C(C)OS(=O)(=O)O)C2C1 (stereo not shown) [MM 13902]
stability (Stability): tends to be unstable
activity (Klebsiella aerogenes; partially purified salt, after XAD 4): 37,000 units/mg
